Measured values reported in patent US10245332B2, “Contrast agents for applications including perfusion imaging” (Lantheus Medical Imaging, Inc., priority 2008, dated 2019).

What was measured:
[1] = microPET imaging of NHP brain after intravenous injection; format: in vivo, nonhuman primates (NHP)
Experimental: Similarly, in nonhuman primates (NHP), about 3 mCi of Agent 1 or Agent 2 was injected intravenously and the brain of NHP was imaged in a microPET. […] The NHP brain was not visible when imaged with Agent 1.

[2] = microPET brain imaging in normal NHP (Example 13); format: in vivo, nonhuman primates (NHP); conditions: 30 minutes post injection of 5.1 mCi
Experimental: (§1) Imaging was performed with a microPET camera (Focus220, MICROPET) in anesthetized rats, rabbits and nonhuman primates (NHP) following the intravenous administration of 1, 2 and 3 mCi of ^18F labeled 2-tert-butyl-4-chloro-5-[4-(2-fluoro-ethoxymethyl)-benzyloy]-2H-pyridazin-3-one, also referred to herein as Agent 2. After count acquisition, images were constructed and manually re-orientated as a series of tomographic views. […] These images were acquired 30 minutes post injection (mpi) of 5.1 mCi of 2-tert-butyl-4-chloro-5-[4-(2-[^18F]fluoro-ethoxymethyl)-benzyloy]-2H-pyridazin-3-one and were decay corrected.

tumor = experiment: Tumor uptake measured in mouse tumor models after imaging; format: in vivo; conditions: about 500 μCi intravenously
Experimental: Imaging studies using several mouse tumor models, including c-neu ONCO mice, nu/nu mice with OVCAR tumor, and nu/nu mice with HT1080 tumor, were conducted using contrast agents described herein. After administering anesthesia to the mouse, about 500 μCi of Agent 2 (from Table 1) were injected intravenously and the tumor was imaged in a microPET scanner. After imaging acquisition, images were reconstructed into tomographic views. […] In addition, tumor uptake of Agent 2 was measured in the mouse models after imaging. The uptake was detectable in a range from 1-4% injected dose per gram tissue.

[3] = microPET imaging of rat brain after intravenous injection; format: in vivo; conditions: about 1 mCi intravenously
Experimental: After anesthesia, about 1 mCi of Agent 2 or Agent 3 was injected into a rat intravenously and the rat brain was imaged in a microPET scanner. Following the image acquisition, the images were reconstructed into tomographic views.

[4] = Intravenous injection during microPET imaging in normal animals: heart rate, ECG, adverse effects; format: in vivo, rats, rabbits and nonhuman primates; conditions: anesthetized animals
Experimental: as §1

SMILES	visibility of NHP brain in microPET images ([1]; NHP, about 3 mCi intravenously)	penetration into the brain, relative to Agent 2 ([1]; SAR study of Example 14)	transport into the brain (uptake and resolution of the images) [2]	tumor uptake (tumor)	passing the blood brain barrier and accumulating in the brain [3]	changes in heart rate and ECG waveforms [4]	survival and adverse effects during image acquisition period [4]	passing through blood brain barrier and accumulating in the brain ([1]; NHP, about 3 mCi intravenously)
CC(C)(C)n1ncc(OCc2ccc(CCCC[18F])cc2)c(Cl)c1=O [Agent 1, 2-tert-butyl-4-chloro-5-[4-(4-[^18F]fluoro-butyl)-benzyloxy]-2H-pyridazin-3-one]	not visible	decreased penetration into the brain	–	–	–	–	–	–
CC(C)(C)n1ncc(OCc2ccc(COCC[18F])cc2)c(Cl)c1=O [Agent 2, 2-tert-Butyl-4-chloro-5-[4-(2-(^18F)fluoroethoxymethyl)-benzyloxy]-2H-pyridazin-3-one]	visible	–	efficiently transported into the brain	1-4 % injected dose per gram tissue	capable of passing the blood brain barrier and accumulating in the brain	did not induce changes in heart rate and ECG waveforms	all animals survived the image acquisition period with no adverse effects	capable of passing through blood brain barrier and accumulating in the brain
CC(C)(C)n1ncc(OCc2ccc(OCCC[18F])cc2)c(Cl)c1=O [Agent 3, 2-tert-Butyl-4-chloro-5-[4-(3-(^18F)fluoropropoxy)-benzyloxy]-2H-pyridazin-3-one]	–	–	–	–	unlike Agent 3, Agent 2 is capable of passing the blood brain barrier	–	–	–
